Some test systems named below: SF-295 CNS; OVCAR-5 ovarian; MDA-MB-231 breast; SK-MEL-2 melanoma; MOLT-4 leukemia; 786-0 renal; DU-145 prostate; NCI-H522 lung; SW-620 colon; BT-549 breast.
Holding throughout (assay): DTP human tumour cell line panel, 48 h

Structures are written as SMILES.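 Exposure lasted 48 hours, with cells grown in 96-well plates and compounds tested at five concentrations. Abbreviation: GI50, concentration required for 50% inhibition of growth. TGI is the concentration that stops growth completely.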

`CCOC(=O)c1c(C)c2c(n1Cc1ccccc1)CSCC2=O`: the GI50 (in general, the concentration at which growth is held to half of that of the control) was 18 µM with SF-295 CNS; 20.9 µM with OVCAR-5 ovarian; 14.7 µM in the assay on MDA-MB-231 breast; 18.4 µM with SK-MEL-2 melanoma; 12.2 µM in the assay on MOLT-4 leukemia; 24.1 µM in the assay on 786-0 renal. In addition, the GI50 is 21.9 µM in the assay with DU-145 prostate, 14.8 µM in the assay on NCI-H522 lung, 17.4 µM in the assay with SW-620 colon and 21 µM with BT-549 breast. Further, the TGI (commonly the concentration at which net growth stops) in the assay with SF-295 CNS was determined as 49.5 µM; with OVCAR-5 ovarian it was 89.1 µM; in the assay on MDA-MB-231 breast, 51.2 µM; in the assay with SK-MEL-2 melanoma, 45.7 µM; in the assay with MOLT-4 leukemia, 51.9 µM; in the assay on 786-0 renal it was 63.1 µM. For the same molecule, the TGI in the assay on DU-145 prostate was greater than 100 µM; in the assay with NCI-H522 lung, 58.8 µM; in the assay with SW-620 colon it was 47 µM; with BT-549 breast, 77.6 µM.
As for `C=CC12CCN(CC1)C(C(O)c1ccnc3ccc(OC)cc13)C2` (stereo not given), the GI50 in the assay on SF-295 CNS, with OVCAR-5 ovarian, in the assay on MDA-MB-231 breast, with SK-MEL-2 melanoma, in the assay with MOLT-4 leukemia and in the assay with 786-0 renal was greater than 100 µM throughout. The GI50 is greater than 100 µM in the assay with DU-145 prostate, 47.8 µM in the assay with NCI-H522 lung, greater than 100 µM with SW-620 colon and greater than 100 µM in the assay on BT-549 breast. Besides, the TGI in the assay with SF-295 CNS, in the assay with OVCAR-5 ovarian, with MDA-MB-231 breast, with SK-MEL-2 melanoma, in the assay on MOLT-4 leukemia and in the assay on 786-0 renal was greater than 100 µM each time. Moreover, the TGI with DU-145 prostate, with NCI-H522 lung, in the assay with SW-620 colon and with BT-549 breast was greater than 100 µM in each case.
Regarding `O=C(O)c1ccc(CNCc2ccccc2)cc1`, the TGI in the assay with SF-295 CNS, with OVCAR-5 ovarian, in the assay with MDA-MB-231 breast, with SK-MEL-2 melanoma, with MOLT-4 leukemia and in the assay with 786-0 renal was greater than 100 µM in each case. Besides, the concentration for total growth inhibition (TGI) in the assay with DU-145 prostate, in the assay on NCI-H522 lung, with SW-620 colon and with BT-549 breast was greater than 100 µM each time.
As to `O=c1[nH]c(O)c(C=Nc2ccc(-c3nc4ccccc4o3)cc2)c(=O)[nH]1`, the GI50 with SF-295 CNS is 23.7 µM; with OVCAR-5 ovarian it was greater than 100 µM; in the assay with MDA-MB-231 breast, 29.2 µM; in the assay on SK-MEL-2 melanoma, 37.8 µM; with MOLT-4 leukemia it was greater than 100 µM; with 786-0 renal, 32.9 µM. Also, the GI50 in the assay on DU-145 prostate was greater than 100 µM; in the assay on NCI-H522 lung, 30.9 µM; in the assay on SW-620 colon, 40.6 µM; with BT-549 breast, greater than 100 µM. The TGI is 68.9 µM in the assay with SF-295 CNS; greater than 100 µM in the assay with OVCAR-5 ovarian; greater than 100 µM in the assay on MDA-MB-231 breast; greater than 100 µM with SK-MEL-2 melanoma; greater than 100 µM in the assay on MOLT-4 leukemia; greater than 100 µM in the assay on 786-0 renal. Besides, the TGI in the assay on DU-145 prostate, in the assay with NCI-H522 lung, in the assay on SW-620 colon and in the assay with BT-549 breast was greater than 100 µM throughout.
Turning to `COC(=O)c1c(C)cc(OC)c(C/C=C(\C)CCCc2coc(C=C(C)C)c2)c1OC`, the TGI in the assay on SF-295 CNS, in the assay on OVCAR-5 ovarian, in the assay on MDA-MB-231 breast, in the assay with SK-MEL-2 melanoma, with MOLT-4 leukemia and in the assay on 786-0 renal was greater than 100 µM in each case. Also, the concentration for total growth inhibition (TGI) in the assay with DU-145 prostate, with NCI-H522 lung, in the assay on SW-620 colon and in the assay with BT-549 breast was greater than 100 µM in each case.
For `COc1c(C)c(OCC=C(C)C)cc(CO)c1CO`, the TGI in the assay with SF-295 CNS, in the assay with OVCAR-5 ovarian, in the assay on MDA-MB-231 breast, in the assay on SK-MEL-2 melanoma, in the assay with MOLT-4 leukemia and in the assay on 786-0 renal was greater than 100 µM each time. In addition, the TGI in the assay with DU-145 prostate, in the assay on NCI-H522 lung, in the assay with SW-620 colon and in the assay with BT-549 breast was greater than 100 µM in each case.
For the molecule `Cc1nc2c(Br)cc(Br)cc2c(=O)n1-c1nnc(-c2cccc(Cl)c2Cl)c(N)n1`, the GI50 in the assay on SF-295 CNS is 13.2 µM; in the assay on OVCAR-5 ovarian, 26.6 µM; in the assay on MDA-MB-231 breast, 13.9 µM; in the assay with SK-MEL-2 melanoma, 27.4 µM; with MOLT-4 leukemia it was 15.3 µM; in the assay on 786-0 renal, 18.4 µM. The GI50 was 27.8 µM with DU-145 prostate, 12.8 µM in the assay on NCI-H522 lung, 33.8 µM in the assay on SW-620 colon and 29.3 µM in the assay with BT-549 breast. The TGI was 41.1 µM in the assay with SF-295 CNS; 74.5 µM with OVCAR-5 ovarian; 49.5 µM in the assay on MDA-MB-231 breast; greater than 100 µM in the assay on SK-MEL-2 melanoma; 62.1 µM with MOLT-4 leukemia; 48.2 µM with 786-0 renal. Further, the concentration for total growth inhibition (TGI) is greater than 100 µM with DU-145 prostate, 54.6 µM with NCI-H522 lung, greater than 100 µM with SW-620 colon and greater than 100 µM in the assay on BT-549 breast.
For the molecule `COC(=O)/C=C/c1cc(OC(C)=O)c2c(c1)C(C(=O)OC)C(c1ccc(OC(C)=O)c(OC(C)=O)c1)O2` (stereo not given), the 50% growth inhibitory concentration (GI50) was 0.222 µM in the assay on SF-295 CNS; 3.42 µM in the assay with OVCAR-5 ovarian; 0.442 µM with MDA-MB-231 breast; 3.69 µM in the assay with SK-MEL-2 melanoma; 0.0582 µM in the assay with MOLT-4 leukemia; 0.488 µM in the assay with 786-0 renal. Also, the GI50 in the assay on DU-145 prostate was 0.131 µM; in the assay with NCI-H522 lung, 0.0654 µM; in the assay on SW-620 colon, 0.0468 µM; in the assay on BT-549 breast, 0.127 µM. In addition, the concentration for total growth inhibition (TGI) was 14.1 µM in the assay with SF-295 CNS; greater than 100 µM with OVCAR-5 ovarian; greater than 21.3 µM in the assay with MDA-MB-231 breast; greater than 100 µM in the assay with SK-MEL-2 melanoma; greater than 47.4 µM with MOLT-4 leukemia; greater than 56.8 µM in the assay with 786-0 renal. The TGI in the assay with DU-145 prostate was greater than 100 µM; in the assay on NCI-H522 lung, 11.6 µM; with SW-620 colon, greater than 100 µM; in the assay on BT-549 breast, 2.27 µM.
Take `Cc1cccc(NC2=C(Cl)C(=O)c3nc(C)ccc3C2=O)c1`: the GI50 with SF-295 CNS was 1.49 µM; in the assay with OVCAR-5 ovarian it was 1.82 µM; in the assay with MDA-MB-231 breast, 0.904 µM; with SK-MEL-2 melanoma it was 1.93 µM; in the assay on MOLT-4 leukemia, 2.2 µM; with 786-0 renal it was 1.79 µM. In addition, the GI50 with DU-145 prostate is 1.27 µM; in the assay on NCI-H522 lung, 1.81 µM; in the assay on SW-620 colon, 1.64 µM; in the assay on BT-549 breast, 1.41 µM. Besides, the TGI is 2.96 µM with SF-295 CNS; 3.61 µM in the assay on OVCAR-5 ovarian; 2.42 µM in the assay with MDA-MB-231 breast; 4.19 µM in the assay with SK-MEL-2 melanoma; greater than 100 µM in the assay with MOLT-4 leukemia; 3.36 µM with 786-0 renal. Further, the TGI with DU-145 prostate was found to be 2.55 µM; with NCI-H522 lung it was 4.88 µM; in the assay with SW-620 colon, 4.27 µM; in the assay with BT-549 breast it was 2.77 µM.
`COc1ccc(-c2cc(=O)oc3c4c(ccc23)OCN(Cc2ccc(F)cc2)C4)cc1`: the GI50 with SF-295 CNS was 15 µM; with OVCAR-5 ovarian, 18.4 µM; in the assay with MDA-MB-231 breast, 18.5 µM; in the assay with SK-MEL-2 melanoma, 16.3 µM; in the assay with MOLT-4 leukemia, 19.4 µM; in the assay on 786-0 renal, 15.1 µM. Also, the GI50 in the assay with DU-145 prostate is 24.3 µM; in the assay with NCI-H522 lung, 16.6 µM; with SW-620 colon it was 16.3 µM; in the assay on BT-549 breast it was 14.6 µM. For the same molecule, the TGI in the assay with SF-295 CNS turned out to be 30 µM; in the assay with OVCAR-5 ovarian, 45.1 µM; with MDA-MB-231 breast it was 40.2 µM; in the assay on SK-MEL-2 melanoma, 31.3 µM; in the assay on MOLT-4 leukemia, 58.3 µM; in the assay on 786-0 renal it was 32.8 µM. Further, the TGI amounted to 59.9 µM with DU-145 prostate, 33.6 µM with NCI-H522 lung, 31.8 µM with SW-620 colon and 31.3 µM in the assay on BT-549 breast.
As for `CCOC(=O)Nc1c(C)nc2ccccn12`, the GI50 with SF-295 CNS, in the assay on OVCAR-5 ovarian, in the assay on MDA-MB-231 breast, with SK-MEL-2 melanoma, in the assay on MOLT-4 leukemia and in the assay on 786-0 renal was greater than 100 µM in each case. Besides, the GI50 with DU-145 prostate, with NCI-H522 lung, in the assay with SW-620 colon and with BT-549 breast was greater than 100 µM throughout. In addition, the TGI in the assay with SF-295 CNS, in the assay on OVCAR-5 ovarian, in the assay with MDA-MB-231 breast, in the assay with SK-MEL-2 melanoma, with MOLT-4 leukemia and with 786-0 renal was greater than 100 µM in each case. Besides, the TGI in the assay on DU-145 prostate, with NCI-H522 lung, in the assay on SW-620 colon and in the assay on BT-549 breast was greater than 100 µM throughout.
As to `C[C@H](CCOc1cccc(CC(=O)O)c1)N(Cc1cccc(C(F)(F)F)c1Cl)CC(c1ccccc1)c1ccccc1`, the GI50 in the assay with SF-295 CNS is 4.44 µM; in the assay on OVCAR-5 ovarian it was 13.4 µM; in the assay with MDA-MB-231 breast it was 10.5 µM; in the assay on SK-MEL-2 melanoma, 5.84 µM; in the assay on MOLT-4 leukemia, 4.95 µM; in the assay with 786-0 renal it was 5.54 µM. Besides, the GI50 with DU-145 prostate was 7.89 µM; with NCI-H522 lung, 4.51 µM; with SW-620 colon it was 5.28 µM; in the assay on BT-549 breast it was 5.39 µM. Also, the TGI came out at 18.6 µM in the assay with SF-295 CNS; 28.1 µM in the assay on OVCAR-5 ovarian; 25.1 µM in the assay with MDA-MB-231 breast; 28.2 µM in the assay on SK-MEL-2 melanoma; 23.1 µM with MOLT-4 leukemia; 19.4 µM in the assay with 786-0 renal. Moreover, the TGI in the assay with DU-145 prostate came out at 20.4 µM; in the assay on NCI-H522 lung it was 22.3 µM; in the assay with SW-620 colon, 20.7 µM; in the assay with BT-549 breast, 20 µM.

Source of the values: PubChem BioAssay (NCI).
